Data: patent US11612586B2, “Indole regulation of antigen presenting cells” (THE TEXAS A&M UNIVERSITY SYSTEM, priority 2016, dated 2023)

What was measured:
NF-kB = NF-kB activity assay in DC2.4-NFkB-GLuc reporter cells; format: cell-based, murine; conditions: indole 24 hours, LPS 10 ug/ml
Experimental: Supernatants were collected and assayed for GLuc concentration in terms of relative luminescence units (RLU). *p<0.05 by Student's t test comparing treated samples to untreated, LPS-stimulated sample.
To maintain consistency with the cytokine studies, the bacterial surface molecule LPS were utilized to induce NF-kB activity.
Culture supernatants were collected at 8 and 24 hours and assayed for GLuc using Biolux Gaussia Luciferase assay kit (New England BioLabs).

TNF = TNF production in splenic macrophages ex vivo; format: cell-based, mouse; conditions: indole overnight
Experimental: Similarly, the ex vivo indole conditioning of splenocytes was repeated with tissues from AhR-deficient and wild-type mice and analyzed TNF production. […] Importantly, in this set of experiments splenocytes were stimulated with LPS, heat-killed S. typhimurium, and CpG. […] Specifically, BMDMs were generated from WT or AhR-KO mice and treated with indole (1 mM) or DMF control for 18 hours. BMDMs were then stimulated with IL-6 (10 ng/ml) for the given times and stained for phospho-Stat3, which was detected by flow cytometry.

DSS colitis = test: BMDC transfer in murine DSS colitis model; format: in vivo, mouse; conditions: mice transferred i.p. with BMDCs conditioned with indole, 5% DSS day 7-14, endpoint day 20
Experimental: FIGS. 21A and 21B graphically illustrate that the in vivo transfer of indole-conditioned DCs prevented shortening of colon in a murine DSS colitis model. BMDCs were cultured with indole, RA, or DMF from day 3. Two million BMDCs were transferred via i.p. injection to WT C57BL/6 mice on days 0, 6, and 9 of the experiment. Mice received 5% dextran sulfate sodium (DSS) ad libitum in their drinking water from day 7 through day 14. Mice were euthanized on day 20 and colons were immediately removed and measured for length (FIG. 21A) and weight (FIG. 21B). n=4 mice/group. *p<0.05 by one-way ANOVA followed by Dunnett's post-test, comparing to unmanipulated control colons.
A hallmark pathological sign of colitis is shortening of the colon, mediated by abscesses forming in the intestinal crypts that disrupt the mucosal architecture and are later replaced by scar tissue. […] Shortening of the colon is an established indicator of colitis pathology in the murine model of DSS colitis.
BMDCs were cultured with indole, RA, or DMF from day 3 as described above. BMDCs were washed, counted, and resuspended in sterile PBS (Ca—Mg—) for transfer to WT C57BL/6 recipients. Two million BMDCs were transferred via i.p. injection on days 0, 6, and 9 of the experiment. Mice received 5% dextran sulfate sodium (DSS, MW=36,000-50,000; MP Biomedicals) ad libitum in their drinking water from day 7 through day 14. […]

[1] = test system: reactive oxygen species (ROS); test: Reactive oxygen species production in DC2.4 and BMDC
Experimental: The secretion of reactive oxygen species (ROS) and nitric oxide (NO) was investigated in DC2.4 and BMDC.
Reactive oxygen species production was measured using the CellRox Deep Red Reagent (ThermoFisher). […] Presence of ROS oxidizes the CellRox reagent to a fluorescent state that can be subsequently analyzed via flow cytometry.

AhR = target: T1, AhR (Homo sapiens, UniProt P35869); conditions: cited from earlier work
T1 construct: host or cells: CaC-2 intestinal cells; yeast; a liver cancer cell line
T1 sequence (P35869 11-848): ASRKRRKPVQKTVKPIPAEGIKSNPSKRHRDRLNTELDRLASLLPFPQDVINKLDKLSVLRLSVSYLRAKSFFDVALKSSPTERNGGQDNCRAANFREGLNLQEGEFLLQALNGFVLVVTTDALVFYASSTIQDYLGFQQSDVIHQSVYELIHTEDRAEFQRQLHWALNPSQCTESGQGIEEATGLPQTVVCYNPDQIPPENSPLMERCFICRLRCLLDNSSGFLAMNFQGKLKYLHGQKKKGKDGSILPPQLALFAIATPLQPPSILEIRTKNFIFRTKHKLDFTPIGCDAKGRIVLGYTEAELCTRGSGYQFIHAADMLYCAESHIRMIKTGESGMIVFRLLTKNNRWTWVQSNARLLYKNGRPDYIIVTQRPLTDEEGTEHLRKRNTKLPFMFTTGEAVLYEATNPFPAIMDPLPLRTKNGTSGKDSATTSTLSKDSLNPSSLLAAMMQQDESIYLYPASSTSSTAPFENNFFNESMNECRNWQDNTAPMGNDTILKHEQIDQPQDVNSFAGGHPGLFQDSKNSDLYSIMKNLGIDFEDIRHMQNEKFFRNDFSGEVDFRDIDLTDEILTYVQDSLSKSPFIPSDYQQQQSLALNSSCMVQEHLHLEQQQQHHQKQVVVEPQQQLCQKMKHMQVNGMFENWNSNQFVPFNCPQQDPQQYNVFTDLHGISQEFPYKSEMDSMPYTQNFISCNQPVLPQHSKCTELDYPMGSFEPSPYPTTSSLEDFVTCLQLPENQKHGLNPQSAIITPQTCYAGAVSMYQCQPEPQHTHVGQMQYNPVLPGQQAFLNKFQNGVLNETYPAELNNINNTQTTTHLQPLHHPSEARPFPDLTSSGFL

## c1ccc2[nH]ccc2c1 [Indole, indole]
NF-kB
  inhibition of NF-kB signaling: approximately one-third
TNF; splenic macrophages from WT or AhR-KO mice, LPS, HK-STM or CpG 6 hours
  inhibition of TNF production: marked inhibition
TNF; splenic macrophages, LPS or heat-killed S. typhimurium
  inhibition of TNF production compared to solvent controls: 75%
DSS colitis
  average colon length: ~6 cm
[1]
  secretion of reactive oxygen species (ROS): intact
AhR; previous finding of the inventors
  AhR activity in CaC-2 intestinal cells: antagonist
AhR; previously reported
  AhR effect in a liver cancer cell line: antagonistic
  AhR effect in yeast: agonistic
